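A five-concentration, 48-hour dose response in 96-well plates underlies each endpoint, interpolated linearly between surrounding concentrations. Here, GI50 denotes the concentration required for 50% inhibition of growth.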 Activity calls are given as the source filed them. No stated cut-off is given here; in the data, active = GI50 up to about 1.1 µM and inactive = higher.
Tests used:
Assay in all cases: inhibition of tumour cell growth, NCI panel, 48 h
[1] = test system: NCI-H23
[2] = test system: KM12
[3] = test system: UACC-62
[4] = test system: SK-MEL-2
[5] = test system: NCI/ADR-RES
[6] = test system: RPMI-8226
[7] = test system: SF-295
[8] = test system: SNB-75
[9] = test system: OVCAR-8
[10] = test system: HOP-62
[11] = test system: U-251
[12] = test system: Malme-3M
[13] = test system: LOX IMVI
[14] = test system: PC-3
[15] = test system: MOLT-4
[16] = test system: COLO 205
[17] = test system: SF-268
[18] = test system: T47D
[19] = test system: M14

Structure (SMILES) | GI50 [1] | GI50 [2] | GI50 [3] | GI50 [4] | GI50 [5] | GI50 [6] | GI50 [7] | GI50 [8] | GI50 [9] | GI50 [10] | GI50 [11] | GI50 [12] | GI50 [13] | GI50 [14] | GI50 [15] | GI50 [16] | GI50 [17] | GI50 [18] | GI50 [19]
COc1ccc2ccccc2c1C1NC(=O)c2ccccc2N1 (stereo unspecified) | 4.67 µM (inactive) | 0.733 µM (active) | 0.455 µM (active) | 2.08 µM (inactive) | 0.507 µM (active) | 0.659 µM (active) | 0.578 µM (active) | 1.32 µM (inactive) | 3.03 µM (inactive) | 3.51 µM (inactive) | 2.28 µM (inactive) | 0.634 µM (active) | 0.995 µM (active) | 0.519 µM (active) | 0.826 µM (active) | 1.87 µM (inactive) | 3.08 µM (inactive) | 12.1 µM (inactive) | 0.951 µM (active)
CCOP(=O)(OCC)C(C)(CC)N/C(=N\C1=NC(C(F)(F)F)(C(F)(F)F)N=C(C(F)(F)F)O1)NC(NC(C)=O)(C(F)(F)F)C(F)(F)F (stereo unspecified) | 18.2 µM (inactive) | 35 µM (inactive) | 35.3 µM (inactive) | 25.5 µM (inactive) | 17.9 µM (inactive) | 24.2 µM (inactive) | 18 µM (inactive) | 2.3 µM (inactive) | 36.6 µM (inactive) | 36.1 µM (inactive) | 31 µM (inactive) | 22.1 µM (inactive) | 32.2 µM (inactive) | 21.2 µM (inactive) | 13.2 µM (inactive) | 16.1 µM (inactive) | 52.2 µM (inactive) | 22.7 µM (inactive) | 22.9 µM (inactive)
COC(=O)C1(O)C(c2ccccc2)=NC2(C)CCCC21 (stereo unspecified) | > 100 µM (inactive) | > 100 µM (inactive) | > 100 µM (inactive) | > 100 µM (inactive) | > 100 µM (inactive) | > 100 µM (inactive) | > 100 µM (inactive) | > 100 µM (inactive) | > 100 µM (inactive) | > 100 µM (inactive) | > 100 µM (inactive) | > 100 µM (inactive) | > 100 µM (inactive) | > 100 µM (inactive) | > 100 µM (inactive) | > 100 µM (inactive) | > 100 µM (inactive) | > 100 µM (inactive) | > 100 µM (inactive)
O=C1C(c2ccccc2)=C(c2ccccc2)C1(Cl)Cl | 2.75 µM (inactive) | 6.65 µM (inactive) | 1.86 µM (inactive) | 2.72 µM (inactive) | 3.2 µM (inactive) | 2.11 µM (inactive) | 9.89 µM (inactive) | 4.95 µM (inactive) | 2.64 µM (inactive) | 14.8 µM (inactive) | 2.84 µM (inactive) | 2.86 µM (inactive) | 1.93 µM (inactive) | 4.37 µM (inactive) | 2.55 µM (inactive) | 2.59 µM (inactive) | 2.99 µM (inactive) | 3.18 µM (inactive) | 2.22 µM (inactive)
O=C(Cn1c(=O)oc2ccc(C(=O)c3ccc(F)cc3)cc21)c1ccc([N+](=O)[O-])cc1 | 45.6 µM (inactive) | 22.8 µM (inactive) | 34.2 µM (inactive) | 20.2 µM (inactive) | 33.8 µM (inactive) | 22.2 µM (inactive) | – | 36.9 µM (inactive) | 25.8 µM (inactive) | 54.5 µM (inactive) | 34.3 µM (inactive) | 31.8 µM (inactive) | 34.8 µM (inactive) | 22.5 µM (inactive) | 18.2 µM (inactive) | 26.9 µM (inactive) | 45 µM (inactive) | 24.7 µM (inactive) | 13 µM (inactive)
CCOC(=O)c1c(-c2ccc(OC)cc2)c(C#N)c(=S)n(C2OC(CO)C(O)C(O)C2O)c1-c1ccccc1 (stereo unspecified) | 31.8 µM (inactive) | 51.2 µM (inactive) | 28.2 µM (inactive) | 31.3 µM (inactive) | > 100 µM (inactive) | 46.9 µM (inactive) | 44.9 µM (inactive) | 78.7 µM (inactive) | – | 25.4 µM (inactive) | 47.1 µM (inactive) | 73.5 µM (inactive) | 41.9 µM (inactive) | 35.6 µM (inactive) | 30.7 µM (inactive) | 49.3 µM (inactive) | 68.7 µM (inactive) | 52.2 µM (inactive) | 31.9 µM (inactive)
NS(=O)(=O)c1ccc(/N=N/c2cc3ccccc3c(C(=O)O)c2O)cc1 | > 47.8 µM (inactive) | 5.18 µM (inactive) | > 55.7 µM (inactive) | > 45.1 µM (inactive) | > 64.1 µM (inactive) | > 100 µM (inactive) | > 100 µM (inactive) | > 60.7 µM (inactive) | > 56.8 µM (inactive) | > 59.2 µM (inactive) | > 39.9 µM (inactive) | > 56.9 µM (inactive) | > 54.5 µM (inactive) | > 48.3 µM (inactive) | > 57 µM (inactive) | > 58.6 µM (inactive) | > 52.1 µM (inactive) | > 54.1 µM (inactive) | 97.1 µM (inactive)
